We go through three compounds from ChEMBL document CHEMBL1145681, “Inhibitory effect of dehydroevodiamine and evodiamine on nitric oxide production in cultured murine macrophages” (J Nat Prod, 1997).

Data set [1] concerns RAW264.7. The data set is described as follows: Antiinflammatory activity in IFN-gamma/LPS-stimulated mouse RAW264.7 cells assessed as inhibition of NO production at 10 uM treated before 30 mins of IFN-gamma stimulation in presence of LPS measured after 19 hrs relative to control. It is filed as functional. The conditions noted are these: values are per cent of control.
Data set [2] deals with RAW264.7. The data set is described as follows: Antiinflammatory activity in IFN-gamma/LPS-stimulated mouse RAW264.7 cells assessed as inhibition of NO production at 50 uM treated before 30 mins of IFN-gamma stimulation in presence of LPS measured after 19 hrs relative to control. Type of data set: functional. The conditions noted are these: values are per cent of control.

The subject of data set [3] is RAW264.7. The data set can be described thus: Antiinflammatory activity in IFN-gamma/LPS-stimulated mouse RAW264.7 cells assessed as inhibition of NO production at 100 uM treated before 30 mins of IFN-gamma stimulation in presence of LPS measured after 19 hrs relative to control. Type of data set: functional. The conditions noted are these: values are per cent of control.

Data set [4] concerns RAW264.7. The data set can be described thus: Cytotoxicity against IFN-gamma/LPS-stimulated mouse RAW264.7 cells at 10 to 100 uM treated after 3 hrs of IFN-gamma stimulation and before 30 mins of LPS addition measured after 19 hrs by MTT assay. It is filed as cell-based. Particulars: raw264.7, 19 h. (In general: Tetrazolium dyes change colour on reduction, which living cells bring about.)

The test system of data set [5] is RAW264.7. The data set can be described thus: Cytotoxicity against IFN-gamma/LPS-stimulated mouse RAW264.7 cells at 10 to 100 uM treated after 2 hrs of LPS addition measured after 19 hrs by MTT assay. Type of data set: cell-based. The conditions noted are these: raw264.7, 19 h.
Data set [6] concerns RAW264.7. The data set is described as follows: Antiinflammatory activity in IFN-gamma/LPS-stimulated mouse RAW264.7 cells assessed as inhibition of NO production at 10 uM treated after 18.5 hrs of LPS addition measured after 19 hrs relative to control. Type of data set: functional, cell-based.
In data set [7] the test system is RAW264.7. The data set can be described thus: Antiinflammatory activity in IFN-gamma/LPS-stimulated mouse RAW264.7 cells assessed as inhibition of NO production at 50 uM treated after 18.5 hrs of LPS addition measured after 19 hrs relative to control. Type of data set: functional, cell-based.
Data set [8] relates to RAW264.7. The data set is described as follows: Antiinflammatory activity in IFN-gamma/LPS-stimulated mouse RAW264.7 cells assessed as inhibition of NO production at 30 uM treated after 18.5 hrs of LPS addition measured after 19 hrs relative to control. Type of data set: functional, cell-based.
Data set [9] deals with RAW264.7. The data set can be described thus: Antiinflammatory activity in IFN-gamma/LPS-stimulated mouse RAW264.7 cells assessed as NO production at 10 uM treated after 3 hrs of IFN-gamma stimulation and before 30 mins of LPS addition measured after 19 hrs relative to control.
Data set [10] deals with RAW264.7. The data set can be described thus: Antiinflammatory activity in IFN-gamma/LPS-stimulated mouse RAW264.7 cells assessed as NO production at 50 uM treated after 3 hrs of IFN-gamma stimulation and before 30 mins of LPS addition measured after 19 hrs relative to control.
Data set [11] relates to RAW264.7. The data set is described as follows: Antiinflammatory activity in IFN-gamma/LPS-stimulated mouse RAW264.7 cells assessed as NO production at 100 uM treated after 3 hrs of IFN-gamma stimulation and before 30 mins of LPS addition measured after 19 hrs relative to control.
In data set [12] the test system is RAW264.7. The data set is described as follows: Antiinflammatory activity in IFN-gamma/LPS-stimulated mouse RAW264.7 cells assessed as inhibition of NO production at 10 uM treated after 2 hrs of LPS addition measured after 19 hrs relative to control; values are per cent of control.
For data set [13], the system named is RAW264.7. The data set can be described thus: Antiinflammatory activity in IFN-gamma/LPS-stimulated mouse RAW264.7 cells assessed as inhibition of NO production at 50 uM treated after 2 hrs of LPS addition measured after 19 hrs relative to control; values are per cent of control.
Data set [14] relates to RAW264.7. The data set is described as follows: Antiinflammatory activity in IFN-gamma/LPS-stimulated mouse RAW264.7 cells assessed as inhibition of NO production at 100 uM treated after 2 hrs of LPS addition measured after 19 hrs relative to control; values are per cent of control.
Data set [15] relates to RAW264.7. The data set can be described thus: Cytotoxicity against IFN-gamma/LPS-stimulated mouse RAW264.7 cells at 10 to 100 uM treated after 18.5 hrs of LPS addition measured after 19 hrs by MTT assay. It is filed as cell-based. Particulars: raw264.7, 19 h.
Data set [16] deals with RAW264.7. The data set can be described thus: Antiinflammatory activity in IFN-gamma/LPS-stimulated mouse RAW264.7 cells assessed as inhibition of NO production at 30 uM treated before 30 mins of IFN-gamma stimulation in presence of LPS measured after 19 hrs relative to control. It is filed as functional.
The test system of data set [17] is RAW264.7. The data set can be described thus: Antiinflammatory activity in IFN-gamma/LPS-stimulated mouse RAW264.7 cells assessed as inhibition of NO production at 50 uM treated after 3 hrs of IFN-gamma stimulation and before 30 mins of LPS addition measured after 19 hrs relative to control. It is filed as functional.
For data set [18], the system named is RAW264.7. The data set is described as follows: Antiinflammatory activity in IFN-gamma/LPS-stimulated mouse RAW264.7 cells assessed as inhibition of NO production at 100 uM treated after 3 hrs of IFN-gamma stimulation and before 30 mins of LPS addition measured after 19 hrs relative to control. Type of data set: functional.
In data set [19] the test system is RAW264.7. The data set is described as follows: Antiinflammatory activity in IFN-gamma/LPS-stimulated mouse RAW264.7 cells assessed as inhibition of NO production at 30 uM treated after 3 hrs of IFN-gamma stimulation and before 30 mins of LPS addition measured after 19 hrs relative to control. It is filed as functional, cell-based.

Activity calls are given as the source filed them. No cut-off for these calls is given here.

On to `C[n+]1c2n(c(=O)c3ccccc31)CCc1c-2[nH]c2ccccc12` [DEHYDROEVODIAMINE], for which the response, % of control at 10 µM in the data set on RAW264.7 [1] is 80.6%. Besides, in the data set with RAW264.7 [2], the response, % of control at 50 µM is 74.2%. For the same compound, in the data set on RAW264.7 [3], the response, % of control at 100 µM came out at 44%. The Activity entry in the data set with RAW264.7 [4] is “Not Active”; with RAW264.7 [5], “Non-toxic”. Moreover, the outcome in the data set on RAW264.7 [6], with RAW264.7 [7] and in the data set on RAW264.7 [8] was inactive. Further, the level, % of control at 10 µM in the data set on RAW264.7 [9] came out at 86.1%. In addition, the level, % of control at 50 µM with RAW264.7 [10] stood at 78.1%. Also, the level, % of control at 100 µM in the data set with RAW264.7 [11] was 23.2%. In addition, the figures for the “NO level, % of control” value with RAW264.7 [12], in the data set on RAW264.7 [13] and in the data set on RAW264.7 [14] were 84.3%, 77% and 24.2%, respectively.

Regarding `CN1c2ccccc2C(=O)N2CCc3c([nH]c4ccccc34)[C@H]21` [EVODIAMINE], the Activity entry with RAW264.7 [4] is reported as “Not Active”; with RAW264.7 [5], “Non-toxic”; in the data set with RAW264.7 [15], “Non-toxic”.

One may read the inhibition as the share of the control response that was lost under treatment. `CN1c2ccccc2C(=O)N2CCc3c([nH]c4ccccc34)[C@@H]21` [EVODIAMINE]: the response, % of control at 10 µM in the data set on RAW264.7 [1] amounted to 79.5%. Further, in the data set on RAW264.7 [2], the response, % of control at 50 µM turned out to be 68.3%. Moreover, the inhibition at 30 µM with RAW264.7 [16] worked out at 50.6%. For the same compound, the outcome with RAW264.7 [17], in the data set on RAW264.7 [18] and in the data set with RAW264.7 [19] was inactive.
